Activity calls are given as the source filed them. The calls are words filed in the database; no cut-off is given here.
Columns and labels:
Format in all cases: functional, organism-based
[1] = tested on: Candida albicans; assay: Growth inhibition of Candida albicans at 100 ug/ml by cup-plate method
[2] = tested on: Saccharomyces cerevisiae; assay: Growth inhibition of Saccharomyces cerevisiae at 100 ug/ml by cup-plate method
[3] = tested on: Proteus vulgaris; assay: Growth inhibition of Proteus vulgaris at 300 ug/ml by cup-plate method
[4] = tested on: Proteus vulgaris; assay: Growth inhibition of Proteus vulgaris at 100 ug/ml by cup-plate method
[5] = tested on: Staphylococcus aureus; assay: Growth inhibition of Staphylococcus aureus at 100 ug/ml by cup-plate method
[6] = tested on: Saccharomyces cerevisiae; assay: Growth inhibition of Saccharomyces cerevisiae at 300 ug/ml by cup-plate method
[7] = tested on: Escherichia coli; assay: Growth inhibition of Escherichia coli at 300 ug/ml by cup-plate method
[8] = tested on: Escherichia coli; assay: Growth inhibition of Escherichia coli at 100 ug/ml by cup-plate method
[9] = tested on: Bacillus subtilis; assay: Growth inhibition of Bacillus subtilis at 100 ug/ml by cup plate method
[10] = tested on: Escherichia coli; assay: Growth inhibition of Escherichia coli at 200 ug/ml by cup-plate method
[11] = tested on: Candida albicans; assay: Growth inhibition of Candida albicans at 300 ug/ml by cup-plate method
[12] = tested on: Proteus vulgaris; assay: Growth inhibition of Proteus vulgaris at 200 ug/ml by cup-plate method
[13] = tested on: Bacillus subtilis; assay: Growth inhibition of Bacillus subtilis at 300 ug/ml by cup plate method
[14] = tested on: Staphylococcus aureus; assay: Growth inhibition of Staphylococcus aureus at 200 ug/ml by cup-plate method
[15] = tested on: Pseudomonas aeruginosa; assay: Growth inhibition of Pseudomonas aeruginosa at 200 ug/ml by cup-plate method
[16] = tested on: Candida albicans; assay: Growth inhibition of Candida albicans at 200 ug/ml by cup-plate method
[17] = tested on: Pseudomonas aeruginosa; assay: Growth inhibition of Pseudomonas aeruginosa at 100 ug/ml by cup-plate method
[18] = tested on: Staphylococcus aureus; assay: Growth inhibition of Staphylococcus aureus at 300 ug/ml by cup-plate method
[19] = tested on: Pseudomonas aeruginosa; assay: Growth inhibition of Pseudomonas aeruginosa at 300 ug/ml by cup-plate method
[20] = tested on: Saccharomyces cerevisiae; assay: Growth inhibition of Saccharomyces cerevisiae at 200 ug/ml by cup-plate method
[21] = tested on: Bacillus subtilis; assay: Growth inhibition of Bacillus subtilis at 200 ug/ml by cup plate method

Structure (SMILES) | growth inhibition (GI) [1] | growth inhibition (GI) [2] | growth inhibition (GI) [3] | growth inhibition (GI) [4] | growth inhibition (GI) [5] | growth inhibition (GI) [6] | growth inhibition (GI) [7] | growth inhibition (GI) [8] | growth inhibition (GI) [9] | growth inhibition (GI) [10] | growth inhibition (GI) [11] | growth inhibition (GI) [12] | growth inhibition (GI) [13] | growth inhibition (GI) [14] | growth inhibition (GI) [15] | growth inhibition (GI) [16] | growth inhibition (GI) [17] | growth inhibition (GI) [18] | growth inhibition (GI) [19] | growth inhibition (GI) [20] | also measured
CCn1c(-c2ccccc2)c(C=C2C(=O)NC(=O)NC2=O)c2ccccc21 | Active | Active | inactive | inactive | inactive | Active | inactive | inactive | inactive | inactive | Active | inactive | Active | inactive | Active | Active | Active | inactive | Active | Active | growth inhibition (GI) [21]: inactive
CC(=O)N1CCN(c2ccc(OCC3COC(Cn4ccnc4)(c4ccc(Cl)cc4Cl)O3)cc2)CC1 (configuration not stated) | Active | Active |  |  |  | Active |  |  |  |  | Active |  |  |  |  | Active |  |  |  | Active | 
O=C1NC(=O)C(=Cc2c(-c3ccccc3)n(CC(=O)c3ccc(-c4ccccc4)cc3)c3ccccc23)C(=O)N1 | inactive | Active | Active | inactive | Active | Active | Active | Active | Active | Active | inactive | Active | Active | Active | inactive | inactive | inactive | Active | Active | Active | growth inhibition (GI) [21]: Active
O=C1NC(=O)C(=Cc2c(-c3ccccc3)n(CC(=O)c3ccc(Br)cc3)c3ccccc23)C(=O)N1 | Active | Active | Active | Active | Active | Active | Active | Active | Active | Active | Active | Active | Active | Active | Active | Active | Active | Active | Active | Active | growth inhibition (GI) [21]: Active
O=C1NC(=O)C(=Cc2c(-c3ccccc3)n(CC(=O)c3ccc(Cl)cc3)c3ccccc23)C(=O)N1 | Active | Active | Active | Active | Active | Active | Active | Active | Active | Active | Active | Active | Active | Active | Active | Active | Active | Active | Active | Active | growth inhibition (GI) [21]: Active
O=C1NC(=O)C(=Cc2c(-c3ccccc3)n(CC(=O)c3ccccc3)c3ccccc23)C(=O)N1 | inactive | Active | Active | Active | inactive | Active | inactive | inactive | inactive | inactive | inactive | inactive | inactive | inactive | Active | inactive | Active | inactive | Active | Active | growth inhibition (GI) [21]: inactive
CC1(C)S[C@@H]2[C@H](NC(=O)[C@H](N)c3ccccc3)C(=O)N2[C@H]1C(=O)O | inactive |  | Active | Active | Active |  | Active | Active | Active | Active | inactive | Active | Active | Active | Active | inactive | Active | Active | Active |  | growth inhibition (GI) [21]: Active
C=CCn1c(-c2ccccc2)c(C=C2C(=O)NC(=O)NC2=O)c2ccccc21 | Active | Active | Active | Active | Active | Active | Active | Active | Active | Active | Active | Active | Active | Active | Active | Active | Active | Active | Active | Active | growth inhibition (GI) [21]: Active
CCCCn1c(-c2ccccc2)c(C=C2C(=O)NC(=O)NC2=O)c2ccccc21 | Active | inactive | Active | Active | Active | inactive | Active | Active | Active | Active | Active | Active | Active | Active | inactive | Active | inactive | Active | inactive | inactive | growth inhibition (GI) [21]: Active
COc1ccc(C(=O)Cn2c(-c3ccccc3)c(C=C3C(=O)NC(=O)NC3=O)c3ccccc32)cc1 | Active | inactive | Active | Active | inactive | Active | inactive | inactive | inactive | inactive | Active | Active | Active | inactive | Active | Active | Active | inactive | Active | inactive | growth inhibition (GI) [21]: inactive
